Active and inactive are the calls of the source. How the calls were made is not given here.
Test system: CCRIS mutagenicity, Ames/micronucleus/aberration tests
Experiment: CCRIS mutagenicity studies
Details: Test System: AMES SALMONELLA TYPHIMURIUM
[1] = Strain/Indicator: TA100, Metabolic Activation: NONE, Method: STANDARD PLATE
[2] = Strain/Indicator: TA100, Metabolic Activation: RAT, LIVER, S-9, AROCLOR 1254, Method: STANDARD PLATE

`O=C1C=CC(=O)c2c(O)c(Cl)c(Cl)c(O)c21` was tested, and the mutagenic call (Strain/Indicator: TA97, Metabolic Activation: NONE, Method: PREINCUBATION) was “inactive; negative”, the mutagenic call (Strain/Indicator: TA97, Metabolic Activation: RAT, LIVER, S-9, PHENOBARBITAL AND 5,6-BENZOFLAVONE, Method: PREINCUBATION) was “active; positive” and the mutagenic call (Strain/Indicator: TA98, Metabolic Activation: NONE, Method: PREINCUBATION) was “inactive; negative”. The mutagenic call (Strain/Indicator: TA98, Metabolic Activation: RAT, LIVER, S-9, PHENOBARBITAL AND 5,6-BENZOFLAVONE, Method: PREINCUBATION) was “inactive; negative”, the mutagenic call (Strain/Indicator: TA100, Metabolic Activation: NONE, Method: PREINCUBATION) was “inactive; negative” and the mutagenic call (Strain/Indicator: TA100, Metabolic Activation: RAT, LIVER, S-9, PHENOBARBITAL AND 5,6-BENZOFLAVONE, Method: PREINCUBATION) was “inactive; negative”. The mutagenic call (Strain/Indicator: TA102, Metabolic Activation: NONE, Method: PREINCUBATION) was “inactive; negative”, the mutagenic call (Strain/Indicator: TA102, Metabolic Activation: RAT, LIVER, S-9, PHENOBARBITAL AND 5,6-BENZOFLAVONE, Method: PREINCUBATION) was “active; positive” and the mutagenic call (Strain/Indicator: TA104, Metabolic Activation: NONE, Method: PREINCUBATION) was “active; positive”. For the same compound, the mutagenic call (Strain/Indicator: TA104, Metabolic Activation: RAT, LIVER, S-9, PHENOBARBITAL AND 5,6-BENZOFLAVONE, Method: PREINCUBATION) was “active; positive”, the mutagenic call (Strain/Indicator: TA1535, Metabolic Activation: NONE, Method: PREINCUBATION) was “inactive; negative” and the mutagenic call (Strain/Indicator: TA1535, Metabolic Activation: RAT, LIVER, S-9, PHENOBARBITAL AND 5,6-BENZOFLAVONE, Method: PREINCUBATION) was “inactive; negative”. For the same compound, the mutagenic call (Strain/Indicator: TA1537, Metabolic Activation: NONE, Method: PREINCUBATION) was “inactive; negative”, the mutagenic call (Strain/Indicator: TA1537, Metabolic Activation: RAT, LIVER, S-9, PHENOBARBITAL AND 5,6-BENZOFLAVONE, Method: PREINCUBATION) was “active; positive” and the mutagenic call (Strain/Indicator: TA1538, Metabolic Activation: NONE, Method: PREINCUBATION) was “inactive; negative”. For the same compound, the mutagenic call (Strain/Indicator: TA1538, Metabolic Activation: RAT, LIVER, S-9, PHENOBARBITAL AND 5,6-BENZOFLAVONE, Method: PREINCUBATION) was “inactive; negative”, the mutagenic call (Strain/Indicator: TA2637, Metabolic Activation: NONE, Method: PREINCUBATION) was “inactive; negative” and the mutagenic call (Strain/Indicator: TA2637, Metabolic Activation: RAT, LIVER, S-9, PHENOBARBITAL AND 5,6-BENZOFLAVONE, Method: PREINCUBATION) was “active; positive”.
In the case of `CC12CCC(=O)NC1=CCC1C2CCC2(C)C(OC(=O)CCCc3ccc(N(CCCl)CCCl)cc3)CCC12` (stereo not given), the mutagenic call (Strain/Indicator: TA98, Metabolic Activation: NONE, Method: STANDARD PLATE) is reported as “inactive; negative”, the mutagenic call (Strain/Indicator: TA98, Metabolic Activation: RAT, LIVER, S-9, AROCLOR 1254, Method: STANDARD PLATE) is reported as “inactive; negative” and the mutagenic call [1] is reported as “active; positive”. The mutagenic call [2] was “active; positive”, the mutagenic call (Strain/Indicator: TA102, Metabolic Activation: NONE, Method: STANDARD PLATE) was “inactive; negative” and the mutagenic call (Strain/Indicator: TA102, Metabolic Activation: RAT, LIVER, S-9, AROCLOR 1254, Method: STANDARD PLATE) was “inactive; negative”. The mutagenic call (Strain/Indicator: TA1535, Metabolic Activation: NONE, Method: STANDARD PLATE) was “active; positive”, the mutagenic call (Strain/Indicator: TA1535, Metabolic Activation: RAT, LIVER, S-9, AROCLOR 1254, Method: STANDARD PLATE) was “active; positive” and the mutagenic call (Strain/Indicator: TA1537, Metabolic Activation: NONE, Method: STANDARD PLATE) was “inactive; negative”. For the same compound, the mutagenic call (Strain/Indicator: TA1537, Metabolic Activation: RAT, LIVER, S-9, AROCLOR 1254, Method: STANDARD PLATE) was “inactive; negative”.
`Cc1cc2c(c3ccc4ccccc4c13)CCC2` was tested, and the mutagenic call [1] was “inactive; negative” and the mutagenic call [2] was “inactive; negative”.
